According to ChEMBL document CHEMBL5465560, “Selectivity Literature for EUbOPEN Chemogenomic Library” (2024):

Key:
[1] = biological target: Serine/threonine-protein kinase PAK 1 (Homo sapiens) (UniProt Q13153); conditions: at 10 µM
[2] = biological target: Mitogen-activated protein kinase kinase kinase 1 (Homo sapiens, UniProt Q13233); experiment: Selectivity interaction (KinomeScan (DiscoverX)) EUB0000655a MAP3K1; conditions: at 10 µM
[3] = biological target: T1, Mitogen-activated protein kinase kinase kinase 5 (Homo sapiens) (UniProt Q99683); experiment: Selectivity interaction (Kinase panel (DSF assay)) EUB0001489b MAP3K5
T1 sequence (whole entry): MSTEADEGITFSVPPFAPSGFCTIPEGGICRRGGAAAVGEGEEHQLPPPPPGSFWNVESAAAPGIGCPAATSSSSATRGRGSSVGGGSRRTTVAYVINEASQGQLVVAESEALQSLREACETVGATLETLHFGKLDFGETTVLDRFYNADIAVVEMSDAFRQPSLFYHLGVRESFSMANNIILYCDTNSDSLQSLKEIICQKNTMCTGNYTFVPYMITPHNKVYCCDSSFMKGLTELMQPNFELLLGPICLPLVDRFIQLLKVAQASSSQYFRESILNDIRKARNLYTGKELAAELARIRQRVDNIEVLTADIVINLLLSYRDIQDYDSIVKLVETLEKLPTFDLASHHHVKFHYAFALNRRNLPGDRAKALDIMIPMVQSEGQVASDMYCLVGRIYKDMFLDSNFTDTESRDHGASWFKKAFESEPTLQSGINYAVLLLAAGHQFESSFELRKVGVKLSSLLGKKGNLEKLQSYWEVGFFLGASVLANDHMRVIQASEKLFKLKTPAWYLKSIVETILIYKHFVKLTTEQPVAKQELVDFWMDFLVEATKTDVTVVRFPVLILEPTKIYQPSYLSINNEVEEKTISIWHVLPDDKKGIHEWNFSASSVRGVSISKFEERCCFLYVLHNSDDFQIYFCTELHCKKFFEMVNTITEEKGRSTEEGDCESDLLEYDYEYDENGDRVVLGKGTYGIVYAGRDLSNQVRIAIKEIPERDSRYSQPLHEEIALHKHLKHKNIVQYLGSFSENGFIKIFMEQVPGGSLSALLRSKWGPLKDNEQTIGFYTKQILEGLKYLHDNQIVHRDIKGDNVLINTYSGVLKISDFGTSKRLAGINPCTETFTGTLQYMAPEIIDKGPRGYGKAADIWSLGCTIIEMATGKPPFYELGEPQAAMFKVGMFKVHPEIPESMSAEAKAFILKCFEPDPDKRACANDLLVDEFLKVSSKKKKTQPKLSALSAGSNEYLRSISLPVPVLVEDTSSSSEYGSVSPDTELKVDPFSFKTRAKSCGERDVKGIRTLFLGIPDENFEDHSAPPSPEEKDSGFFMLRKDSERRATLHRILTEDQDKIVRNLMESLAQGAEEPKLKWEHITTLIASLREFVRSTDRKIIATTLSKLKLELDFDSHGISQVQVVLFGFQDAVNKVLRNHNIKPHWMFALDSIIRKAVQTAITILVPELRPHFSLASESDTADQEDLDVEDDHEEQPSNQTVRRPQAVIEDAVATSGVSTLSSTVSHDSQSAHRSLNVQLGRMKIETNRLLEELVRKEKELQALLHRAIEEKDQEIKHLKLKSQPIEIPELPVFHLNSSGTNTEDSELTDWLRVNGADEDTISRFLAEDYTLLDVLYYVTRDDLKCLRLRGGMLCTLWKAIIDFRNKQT

[4] = biological target: T2, Mitogen-activated protein kinase kinase kinase 3 (Homo sapiens) (UniProt Q99759); conditions: at 10 µM
T2 sequence (whole entry): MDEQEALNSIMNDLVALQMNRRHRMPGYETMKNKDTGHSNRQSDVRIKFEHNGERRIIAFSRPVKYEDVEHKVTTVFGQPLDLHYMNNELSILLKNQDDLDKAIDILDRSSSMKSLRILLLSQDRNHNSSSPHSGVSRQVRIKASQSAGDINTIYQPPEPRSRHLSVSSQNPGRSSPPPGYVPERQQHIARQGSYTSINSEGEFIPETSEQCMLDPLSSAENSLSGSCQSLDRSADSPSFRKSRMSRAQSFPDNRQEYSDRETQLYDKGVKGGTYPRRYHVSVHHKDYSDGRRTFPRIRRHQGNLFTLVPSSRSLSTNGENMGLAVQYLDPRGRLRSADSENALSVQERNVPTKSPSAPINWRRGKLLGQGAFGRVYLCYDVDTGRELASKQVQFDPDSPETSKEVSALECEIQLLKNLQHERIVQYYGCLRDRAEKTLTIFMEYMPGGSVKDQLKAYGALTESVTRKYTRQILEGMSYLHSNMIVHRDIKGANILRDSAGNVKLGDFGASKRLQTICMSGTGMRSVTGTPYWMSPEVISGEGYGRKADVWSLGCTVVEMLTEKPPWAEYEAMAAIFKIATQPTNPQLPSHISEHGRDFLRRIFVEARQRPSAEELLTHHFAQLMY

[5] = biological target: Dual specificity tyrosine-phosphorylation-regulated kinase 1B (Homo sapiens, UniProt Q9Y463); experiment: Selectivity interaction (SelectScreen profiling (Invitrogen)) EUB0000607a DYRK1B; conditions: at 2 µM
[6] = biological target: Mitogen-activated protein kinase 10 (Homo sapiens, UniProt P53779); experiment: Selectivity interaction (KinomeScan (DiscoverX)) EUB0000607a MAPK10; conditions: at 10 µM
[7] = biological target: Homeodomain-interacting protein kinase 3 (Homo sapiens, UniProt Q9H422); experiment: Selectivity interaction (Enzymatic assay (Eurofins)) EUB0001049a HIPK3
[8] = biological target: Casein kinase I isoform delta (Homo sapiens, UniProt P48730); experiment: Selectivity interaction (KinomeScan (DiscoverX)) EUB0000045b CSNK1D
[9] = biological target: Glutamate receptor 1 (Homo sapiens) (UniProt P42261); experiment: Selectivity interaction (Eurofins CEREP Diversity Profile (receptors and ion channels)) EUB0000279b GRIA1; conditions: at 10 µM
Sequence of Glutamate receptor 1 (Homo sapiens) (P42261 whole entry): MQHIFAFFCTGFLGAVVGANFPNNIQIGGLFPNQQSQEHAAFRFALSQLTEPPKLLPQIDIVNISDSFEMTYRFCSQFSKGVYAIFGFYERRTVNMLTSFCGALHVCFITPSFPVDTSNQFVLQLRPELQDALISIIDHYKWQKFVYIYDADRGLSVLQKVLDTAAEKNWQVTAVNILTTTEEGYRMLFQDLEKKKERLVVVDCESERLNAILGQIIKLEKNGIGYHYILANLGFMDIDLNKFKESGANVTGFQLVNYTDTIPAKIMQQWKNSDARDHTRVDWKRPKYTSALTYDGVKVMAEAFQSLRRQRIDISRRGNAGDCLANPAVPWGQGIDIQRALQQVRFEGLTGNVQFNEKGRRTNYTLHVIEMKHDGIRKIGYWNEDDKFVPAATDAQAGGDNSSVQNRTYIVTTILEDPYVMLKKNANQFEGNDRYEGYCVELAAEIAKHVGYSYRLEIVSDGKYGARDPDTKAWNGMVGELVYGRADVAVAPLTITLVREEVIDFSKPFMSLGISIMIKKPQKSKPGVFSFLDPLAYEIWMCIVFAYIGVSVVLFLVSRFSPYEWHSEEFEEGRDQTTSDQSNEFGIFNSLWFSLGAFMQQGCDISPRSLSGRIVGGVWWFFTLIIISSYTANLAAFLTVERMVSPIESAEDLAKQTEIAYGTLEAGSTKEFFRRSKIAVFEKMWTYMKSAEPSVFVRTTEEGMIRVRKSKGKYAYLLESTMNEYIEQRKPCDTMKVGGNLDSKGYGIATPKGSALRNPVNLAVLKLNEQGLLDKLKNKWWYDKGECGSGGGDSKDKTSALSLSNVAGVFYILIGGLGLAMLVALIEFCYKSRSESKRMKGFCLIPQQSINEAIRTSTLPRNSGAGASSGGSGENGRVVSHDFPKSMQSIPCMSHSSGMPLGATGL

Sequence of Casein kinase I isoform delta (P48730 whole entry, looked up, canonical isoform): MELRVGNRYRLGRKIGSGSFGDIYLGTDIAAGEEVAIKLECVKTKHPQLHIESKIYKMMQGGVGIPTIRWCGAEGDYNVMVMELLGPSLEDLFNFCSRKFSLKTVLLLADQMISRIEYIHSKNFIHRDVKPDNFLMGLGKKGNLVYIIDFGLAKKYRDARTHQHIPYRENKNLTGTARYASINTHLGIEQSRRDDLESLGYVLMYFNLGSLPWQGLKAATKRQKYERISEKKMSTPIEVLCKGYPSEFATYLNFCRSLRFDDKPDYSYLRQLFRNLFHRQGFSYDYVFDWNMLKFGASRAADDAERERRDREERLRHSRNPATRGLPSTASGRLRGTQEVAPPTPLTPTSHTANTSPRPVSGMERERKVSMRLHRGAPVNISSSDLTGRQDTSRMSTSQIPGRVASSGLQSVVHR
Sequence of Mitogen-activated protein kinase kinase kinase 1 (Q13233 whole entry): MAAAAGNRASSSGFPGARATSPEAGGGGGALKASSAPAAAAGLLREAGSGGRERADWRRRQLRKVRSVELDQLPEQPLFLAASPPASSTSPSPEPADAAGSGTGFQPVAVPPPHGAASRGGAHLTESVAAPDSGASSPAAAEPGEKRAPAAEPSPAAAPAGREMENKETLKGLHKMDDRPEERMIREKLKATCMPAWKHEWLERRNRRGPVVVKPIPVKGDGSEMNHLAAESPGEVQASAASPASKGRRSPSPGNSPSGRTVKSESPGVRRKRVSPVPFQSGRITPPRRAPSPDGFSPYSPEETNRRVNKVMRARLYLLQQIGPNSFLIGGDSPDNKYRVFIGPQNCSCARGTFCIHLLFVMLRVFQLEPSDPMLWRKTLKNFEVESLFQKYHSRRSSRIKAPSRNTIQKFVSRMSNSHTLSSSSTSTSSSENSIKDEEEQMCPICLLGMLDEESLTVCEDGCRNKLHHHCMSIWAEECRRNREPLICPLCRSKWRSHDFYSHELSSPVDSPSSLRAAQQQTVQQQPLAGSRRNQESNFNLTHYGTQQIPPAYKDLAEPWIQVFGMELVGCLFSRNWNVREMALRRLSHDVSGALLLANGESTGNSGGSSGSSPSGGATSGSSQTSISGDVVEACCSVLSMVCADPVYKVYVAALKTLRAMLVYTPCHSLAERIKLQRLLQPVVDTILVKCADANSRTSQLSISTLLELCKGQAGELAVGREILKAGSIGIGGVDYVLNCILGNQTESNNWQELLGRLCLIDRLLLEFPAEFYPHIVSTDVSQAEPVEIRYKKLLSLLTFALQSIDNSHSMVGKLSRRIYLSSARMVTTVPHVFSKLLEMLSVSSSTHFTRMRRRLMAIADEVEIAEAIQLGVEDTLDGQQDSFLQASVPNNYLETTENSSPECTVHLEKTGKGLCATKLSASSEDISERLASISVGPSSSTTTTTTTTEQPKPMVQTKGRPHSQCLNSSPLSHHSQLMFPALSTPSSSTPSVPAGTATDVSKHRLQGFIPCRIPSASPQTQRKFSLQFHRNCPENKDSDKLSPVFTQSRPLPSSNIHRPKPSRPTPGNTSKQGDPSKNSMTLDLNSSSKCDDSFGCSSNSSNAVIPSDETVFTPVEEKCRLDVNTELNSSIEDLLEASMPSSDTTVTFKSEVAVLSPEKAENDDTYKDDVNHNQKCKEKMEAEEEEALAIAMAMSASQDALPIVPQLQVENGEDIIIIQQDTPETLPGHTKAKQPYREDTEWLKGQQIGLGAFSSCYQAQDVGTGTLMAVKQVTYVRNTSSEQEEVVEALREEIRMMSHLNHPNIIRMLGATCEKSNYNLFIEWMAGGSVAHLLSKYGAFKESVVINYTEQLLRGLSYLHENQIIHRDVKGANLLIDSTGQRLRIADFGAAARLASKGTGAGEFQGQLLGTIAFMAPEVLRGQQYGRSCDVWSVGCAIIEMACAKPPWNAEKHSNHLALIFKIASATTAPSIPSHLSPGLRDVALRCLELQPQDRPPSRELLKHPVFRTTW
Sequence of Mitogen-activated protein kinase 10 (P53779 whole entry): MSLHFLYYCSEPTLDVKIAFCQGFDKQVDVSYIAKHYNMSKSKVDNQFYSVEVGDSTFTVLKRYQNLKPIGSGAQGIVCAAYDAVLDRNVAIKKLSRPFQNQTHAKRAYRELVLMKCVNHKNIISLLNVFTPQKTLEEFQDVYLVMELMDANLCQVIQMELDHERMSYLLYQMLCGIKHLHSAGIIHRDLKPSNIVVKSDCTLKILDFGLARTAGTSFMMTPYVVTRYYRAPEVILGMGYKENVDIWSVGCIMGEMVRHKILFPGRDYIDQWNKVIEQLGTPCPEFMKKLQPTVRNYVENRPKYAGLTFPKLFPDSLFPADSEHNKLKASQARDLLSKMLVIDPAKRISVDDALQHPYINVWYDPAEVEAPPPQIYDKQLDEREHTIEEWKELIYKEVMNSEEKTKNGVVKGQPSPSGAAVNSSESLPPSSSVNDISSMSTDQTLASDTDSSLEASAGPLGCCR
Sequence of Serine/threonine-protein kinase PAK 1 (Homo sapiens) (Q13153 whole entry): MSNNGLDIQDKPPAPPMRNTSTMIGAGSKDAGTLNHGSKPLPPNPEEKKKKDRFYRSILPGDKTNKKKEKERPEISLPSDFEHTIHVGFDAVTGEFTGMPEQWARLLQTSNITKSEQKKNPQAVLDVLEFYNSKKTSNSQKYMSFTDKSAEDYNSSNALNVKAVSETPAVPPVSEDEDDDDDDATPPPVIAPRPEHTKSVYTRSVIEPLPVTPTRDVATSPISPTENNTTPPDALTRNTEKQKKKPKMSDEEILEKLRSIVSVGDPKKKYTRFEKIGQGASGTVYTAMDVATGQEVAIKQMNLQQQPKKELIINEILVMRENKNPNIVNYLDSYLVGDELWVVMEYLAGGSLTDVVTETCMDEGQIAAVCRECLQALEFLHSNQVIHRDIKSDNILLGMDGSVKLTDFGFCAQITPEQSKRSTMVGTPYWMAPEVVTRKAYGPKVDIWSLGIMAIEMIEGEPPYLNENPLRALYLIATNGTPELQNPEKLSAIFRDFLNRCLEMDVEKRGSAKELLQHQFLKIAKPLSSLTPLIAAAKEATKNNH
Sequence of Dual specificity tyrosine-phosphorylation-regulated kinase 1B (Q9Y463 whole entry, looked up): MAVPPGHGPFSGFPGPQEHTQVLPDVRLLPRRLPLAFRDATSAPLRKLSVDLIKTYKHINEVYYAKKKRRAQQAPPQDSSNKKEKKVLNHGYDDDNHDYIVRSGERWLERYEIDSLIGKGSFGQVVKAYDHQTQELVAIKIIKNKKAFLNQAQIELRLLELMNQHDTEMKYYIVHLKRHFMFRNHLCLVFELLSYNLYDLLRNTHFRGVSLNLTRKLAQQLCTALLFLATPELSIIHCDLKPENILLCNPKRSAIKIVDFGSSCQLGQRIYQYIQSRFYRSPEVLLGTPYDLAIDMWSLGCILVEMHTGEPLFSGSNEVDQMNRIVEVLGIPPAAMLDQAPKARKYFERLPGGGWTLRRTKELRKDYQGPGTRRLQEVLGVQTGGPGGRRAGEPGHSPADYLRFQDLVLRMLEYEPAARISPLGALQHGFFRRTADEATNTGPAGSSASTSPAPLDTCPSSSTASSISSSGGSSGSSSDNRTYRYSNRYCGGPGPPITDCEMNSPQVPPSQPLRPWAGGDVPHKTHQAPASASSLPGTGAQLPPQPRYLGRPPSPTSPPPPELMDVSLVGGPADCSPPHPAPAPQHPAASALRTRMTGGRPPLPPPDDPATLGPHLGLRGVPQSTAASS

CCN(CC)CCCCNc1ncc2cc(-c3cc(OC)cc(OC)c3)c(NC(=O)NC(C)(C)C)nc2n1
% of control [1]: 100%

CN(C)CCOc1ccc(-c2nc(-c3ccncc3)c(-c3ccc4c(c3)CC/C4=N\O)[nH]2)cc1
% of control [2]: 72%

CN1CCN(C(=O)c2ccc3cc2OCCOCCNc2ccn4ncc-3c4n2)CC1
dTM [3]: 3.2 K

Cc1cc([C@@H](C)Nc2ccccc2C(=O)O)c2nc(N3CCOCC3)cc(=O)n2c1 [AZD-6482]
% of control [4]: 87%

CNC(=O)Nc1ccc(-c2nc(N3CC4CCC(C3)O4)c3cnn(C4CCC5(CC4)OCCO5)c3n2)cc1
% of inhibition [5]: 2% | % of control [6]: 86%

COc1cc(Nc2nc(C)cc(-c3cnn4nc(OC)ccc34)n2)cc(C(F)(F)F)c1
IC50 [7]: > 10 µM

C=CC(=O)Nc1cc(-n2c(=O)ccc3cnc4ccc(-c5ccc(NS(C)(=O)=O)cc5)cc4c32)ccc1C
% of control ([8]; at 1 µM): 84% | % of control ([8]; at 10 µM): 90%

CC(=O)c1cc(-c2ccccc2OCC2CC2)c2ncccn12
% of control [9]: 93%
